According to ChEMBL document CHEMBL5523672, “Thiazol-4(5H)-one analogs as potent tyrosinase inhibitors: Synthesis, tyrosinase inhibition, antimelanogenic effect, antioxidant activity, and in silico docking simulation” (Bioorg Med Chem, 2024):
The source made the active and inactive calls. The calls are words filed in the database; no cut-off is given here.

Experiments:
Mushroom tyrosinase [1] = target: T1, Mushroom tyrosinase (Agaricus bisporus, UniProt O42713+Q00024+C7FF04+C7FF05); test: Inhibition of mushroom tyrosinase using varying levels of L-DOPA as substrate by Dixon plot analysis; type: protein assay
[2] = Antioxidant activity assessed as DPPH radical scavenging activity at 500 uM incubated for 30 mins under dark condition by microplate reader assay; type: functional
[3] = target: T2, Mushroom tyrosinase (Agaricus bisporus) (UniProt O42713+Q00024+C7FF04+C7FF05); test: Potency index, ratio of kojic acid IC50 to test compound IC50 for inhibition of mushroom tyrosinase using L-Dopa as substrate; type: protein assay
[4] = target: T2, Mushroom tyrosinase (Agaricus bisporus); test: Potency index, ratio of kojic acid IC50 to test compound IC50 for inhibition of mushroom tyrosinase using L-Tyrosine as substrate; type: protein assay
B16-F10 [5] = test: Cytotoxicity against mouse B16-F10 cells upto 20 uM incubated for 72 hrs by EZ-Cytox method; type: toxicity, cell-based; conditions: b16-f10, 72 h
[6] = target: T2, Mushroom tyrosinase (Agaricus bisporus); test: Mixed type inhibition of mushroom tyrosinase at 3 to 12 uM using varying levels of L-DOPA as substrate by Lineweaver-Burk plot analysis; type: protein assay; conditions: dose 3-12 µM
[7] = Antioxidant activity assessed as ROS scavenging activity at 40 uM incubated for 30 mins under dark condition in presence of SIN-1 by microplate reader assay; type: functional
[8] = Antioxidant activity assessed as ABTS radical scavenging activity at 100 uM measured at 1 min interval for 10 mins by microplate reader analysis; type: functional
Mushroom tyrosinase [9] = target: T1, Mushroom tyrosinase; test: Inhibition of mushroom tyrosinase using L-DOPA as substrate incubated for 30 mins by microplate reader assay; type: protein assay
[10] = target: T3, Tyrosinase (Mus musculus) (UniProt P11344); test: Inhibition of tyrosinase activity in IBMX/[…] stimulated mouse B16-F10 cells preincubated for 1 hr followed by IBMX/[…] addition and measured after 72 hrs by microplate reader assay; type: cell-based; conditions: dose 5-20 µM, time 73.0 hrs
T3 sequence (whole entry): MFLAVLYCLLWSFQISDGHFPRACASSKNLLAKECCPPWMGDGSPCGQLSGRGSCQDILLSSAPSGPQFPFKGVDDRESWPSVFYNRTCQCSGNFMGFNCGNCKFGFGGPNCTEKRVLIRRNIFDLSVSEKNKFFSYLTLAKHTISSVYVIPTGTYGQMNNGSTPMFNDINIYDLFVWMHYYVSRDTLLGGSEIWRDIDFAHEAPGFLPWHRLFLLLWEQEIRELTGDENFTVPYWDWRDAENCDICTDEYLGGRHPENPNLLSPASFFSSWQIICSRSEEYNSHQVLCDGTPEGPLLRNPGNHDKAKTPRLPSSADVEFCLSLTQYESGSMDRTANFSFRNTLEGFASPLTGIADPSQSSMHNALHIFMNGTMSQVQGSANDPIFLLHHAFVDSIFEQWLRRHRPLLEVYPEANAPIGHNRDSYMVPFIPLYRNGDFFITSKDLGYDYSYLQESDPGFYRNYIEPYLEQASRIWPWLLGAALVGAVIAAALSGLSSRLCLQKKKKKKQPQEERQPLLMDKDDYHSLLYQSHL

B16-F10 [11] = test: Antimelanogenic activity against IBMX/[…] stimulated mouse B16-F10 cells assessed as reduction in intracellular melanin production preincubated for 1 hr followed by IBMX/[…] addition and measured after 72 hrs by microplate reader assay; type: functional, cell-based; conditions: dose 5-20 µM, time 73.0 hrs
Mushroom tyrosinase [12] = target: T1, Mushroom tyrosinase; test: Inhibition of mushroom tyrosinase using L-tyrosine as substrate incubated for 30 mins by microplate reader assay; type: protein assay
[13] = target: T2, Mushroom tyrosinase (Agaricus bisporus); test: Competitive inhibition of mushroom tyrosinase assessed as increase in Km with constant Vmax at 25 to 100 uM using varying levels of L-DOPA as substrate by Lineweaver-Burk plot analysis; type: protein assay; conditions: dose 25-100 µM

SMILES | Ki (Mushroom tyrosinase [1]) [µM] | Ratio IC50 [3] | Ratio IC50 [4] | inhibition [6] | IC50 (Mushroom tyrosinase [9]) [µM] | inhibition [10] | IC50 (Mushroom tyrosinase [12]) [µM] | inhibition [13] | Activity [2] | Activity (B16-F10 [5]) | Activity [7] | Activity [8] | Activity (B16-F10 [11])
COc1ccc(CNC2=NC(=O)/C(=C/c3ccc(O)cc3O)S2)cc1 | 1.1 | 19 | 26 | Active | 0.4 | Dose-Dependent Effect | 2.1 | – | > 80% | Non-Toxic | inactive | 90% | Dose-Dependent Effect
O=C1O[C@H]([C@@H](O)CO)C(O)=C1O | – | – | – | – | – | – | – | – | 96% | – | – | – | –
COc1ccc(CNC2=NC(=O)/C(=C/c3cc(C(C)(C)C)c(O)c(C(C)(C)C)c3)S2)cc1 | – | – | – | – | 100.9 | – | > 200 | – | > 80% | – | inactive | 41% | –
COc1ccc(CNC2=NC(=O)/C(=C/c3ccc(OC)cc3OC)S2)cc1 | – | – | – | – | 146.4 | – | > 200 | – | inactive | – | Active | inactive | –
Cc1c(C)c2c(c(C)c1O)CCC(C)(C(=O)O)O2 (stereo unspecified) | – | – | – | – | – | – | – | – | – | – | Active | 99.9% | –
COc1ccc(CNC2=NC(=O)/C(=C/c3ccc(F)cc3F)S2)cc1 | – | – | – | – | 179.2 | – | > 200 | – | inactive | – | inactive | inactive | –
COc1ccc(CNC2=NC(=O)/C(=C/c3cc(OC)c(OC)c(OC)c3)S2)cc1 | – | – | – | – | > 200 | – | > 200 | – | inactive | – | Active | inactive | –

Second part, led by results:

Ki (Mushroom tyrosinase [1]) [µM] | Ratio IC50 [3] | Ratio IC50 [4] | inhibition [6] | IC50 (Mushroom tyrosinase [9]) [µM] | inhibition [10] | IC50 (Mushroom tyrosinase [12]) [µM] | inhibition [13] | SMILES | Activity [2] | Activity (B16-F10 [5]) | Activity [7] | Activity [8] | Activity (B16-F10 [11])
– | – | – | – | 136 | – | > 200 | – | COc1ccc(CNC2=NC(=O)/C(=C/c3ccc(OC)c(OC)c3)S2)cc1 | inactive | – | Active | inactive | –
– | – | – | – | 98.5 | – | 174.2 | – | CCOc1cc(/C=C2\SC(NCc3ccc(OC)cc3)=NC2=O)ccc1O | > 80% | – | inactive | 41% | –
– | – | – | – | 105.1 | – | > 200 | – | COc1ccc(CNC2=NC(=O)/C(=C/c3ccc(O)c(O)c3)S2)cc1 | 100% | – | Active | 75% | –
– | – | – | – | 29.2 | – | > 200 | – | COc1ccc(CNC2=NC(=O)/C(=C/c3ccc(O)cc3)S2)cc1 | inactive | – | – | – | –
– | – | – | – | 79.5 | – | > 200 | – | COc1ccc(CNC2=NC(=O)/C(=C/c3ccc(F)c(F)c3)S2)cc1 | inactive | – | inactive | inactive | –
– | – | – | – | > 200 | – | > 200 | – | COc1ccc(CNC2=NC(=O)/C(=C/c3cc(OC)c(O)c(OC)c3)S2)cc1 | – | – | inactive | 41% | –
– | – | – | – | 78.1 | – | 29.4 | – | COc1ccc(CNC2=NC(=O)/C(=C/c3ccc(O)c(OC)c3)S2)cc1 | 93% | – | inactive | 41% | –
– | – | – | – | > 200 | – | > 200 | – | COc1ccc(/C=C2\SC(NCc3ccc(OC)cc3)=NC2=O)cc1 | inactive | – | Active | inactive | –
65.83 | – | – | – | 13 | Dose-Dependent Effect | 107.9 | Active | COc1ccc(CNC2=NC(=O)/C(=C/c3ccc(OC)c(O)c3)S2)cc1 | – | Non-Toxic | inactive | 41% | Dose-Dependent Effect
